# Reference: US12611415B2, “Methods and compounds for treatment of metabolic disease” (Monash University, priority 2019, dated 2026)
# Entries after “also recorded” stand apart in the source; their conditions may differ.
# What was measured:
# Assay type in all cases: in vivo, mouse
# [1] = tested on: mice with HFD-induced obesity; assay: Dose comparison study of Compound I-1 and celecoxib in HFD mice (FIG. 7)
# Excerpt: Timelines and treatment groups are shown in panel a. (b-c) n=8 (CFD), 8 (CP90), 4, (CP30), 7 (CP10), 4 (Cele30), 5 (Cele 10), 6 (Cele3) and 4 (HFD). (c-d) n=7 (CFD), 7 (CP90), 5, (CP30), 7 (CP10), 5 (Cele30), 7 (Cele 10), 6 (Cele3) and 7 (HFD). (e-f) n=12 (CFD), 8 (CP90), 6 (CP30), 7 (CP10), 7 (Cele30), 8 (Cele 10), and 6 (Cele3), 8 (HFD). (g-h) n=10 (CFD), 8 (CP90), 6 (CP30), 7 (CP10), 6 (Cele30), 8 (Cele 10), and 7 (Cele3), 11 (HFD). (i-j) n=4 (CFD), 7 (CP 90), 7 (CP 10), 7 (Cele 10) and 6 (Cele 3). Statistical differences from one-way ANOVA, compared to CFD (baseline). *p<0.05, **p<0.01, ***p<0.005, ****p<0.001.
# [2] = tested on: mice with chronic HFD-induced obesity; assay: Chronic HFD-induced obesity model, Compound I-1 versus CFD switch (FIG. 8)
# Excerpt: Details regarding treatment times and controls are shown in panel (a). Panels b-e show lymph “leakage” into surrounding VAT due to HFD-induced remodelling of the mesenteric lymphatics, as measured by intramucosal injection of Evans blue dye and lymphangiography. (f-g) n=2 (CFD), 7 (HFD), 8 (Cele-pro (CP30)) and 5 (CFD switch).
# [3] = Systemic (plasma) exposure of celecoxib after oral gavage; conditions: oral gavage 29 mg/kg in lipid based formulation (Compound I-1 equivalent to 8.3 mg/kg celecoxib), fasted mice
# Experimental: To evaluate the systemic exposure of celecoxib and celecoxib prodrug Compound I-1, 29 mg/kg celecoxib or celecoxib prodrug (equivalent to 8.3 mg/kg celecoxib) were administered in a self-emulsifying lipid-based formulation consisting of oleic acid (Sigma Aldrich, Australia)/Cremophor RH40 (Sigma Aldrich, Australia)/ethanol (40:52.6:7.4, w/w/w). Drug and prodrug concentrations in the formulations were confirmed using HPLC-MS/MS as described below.
# In addition to evaluating lymph uptake of celecoxib and celecoxib prodrug, a pharmacokinetic dose-determining study was conducted to determine a dose of celecoxib and celecoxib prodrug that produce higher lymphatic uptake but lower systemic plasma celecoxib exposure (i.e. lower plasma concentrations over time) after administration of the prodrug. […]
# For HPLC-MS/MS analysis of celecoxib in plasma after dosing celecoxib or celecoxib prodrug Compound I-1, 200 μL acetonitrile was added to 20 μL samples of plasma and 5 μL of a 1 μg/mL solution of internal standard (5,5-diethyl-1,3-diphenyl-2-iminobarbituric acid) in acetonitrile. Samples were vortexed for 30 seconds and centrifuged at 4,500 g for 5 min, and 80 μL supernatant was analyzed for celecoxib concentration by HPLC-MS. […]
# [4] = tested on: mice reintroduced to a high-fat diet; assay: HFD rechallenge study (FIG. 9); conditions: Cele-pro (CP30)
# Excerpt: Details regarding treatment times and controls are shown in panel (a). Panels b-e show whole mount immunofluorescence images of the mesenteric afferent lymph vessels and cell nuclei in VAT of several mouse groups. Panels f-i show lymph “leakage” into surrounding VAT due to HFD-induced remodelling of the mesenteric lymphatics, as measured by intramucosal injection of Evans blue dye and lymphangiography. (j-m) n=5 (CFD), 5 (HFD), 6 (HFD rechallenge-Cele-pro (CP30)) and 5-7 (HFD rechallenge-CFD switch). (a-d) n=5 (CFD), 6 (HFD), 8 (HFD rechallenge-Cele-Pro (CP30)) and 7 (HFD rechallenge-CFD switch).
# [5] = Compound I-1 at doses as low as 10 mg/kg (~3 mg/kg celecoxib), ~10-fold lower dose relative to celecoxib
# [6] = various doses of Compound I-1 versus higher corresponding doses of celecoxib
# [7] = chronic HFD-induced obesity models, Cele-pro (CP30)
structure (smiles),measurement,setting,value
CCCCCCCCCCCCCCCC(=O)OCC(COC(=O)CCCCCCCCCCCCCCC)OC(=O)CCCCCCCCC(=O)Oc1cc(C)cc(C)c1C(C)(C)CC(=O)NS(=O)(=O)c1ccc(-n2nc(C(F)(F)F)cc2-c2ccc(C)cc2)cc1 [Compound I-1],VAT lymph leakage,[1]; [5],"superior; also recorded: reverses, more effectively"
same,restoration of glycaemic control,[1]; [5],superior
same,reversal of VAT lymphangiogenesis (lymph vessel branching),[1]; [5],"superior; also recorded: reverses, more effectively"
same,reducing fasting plasma triglycerides,[1]; compared with a 3-fold higher dose of celecoxib,superior
same,"HFD-induced obesity, weight",[1]; [6],"reverses, more effectively"
same,changes to lymph composition,[1]; [6],"reverses, more effectively"
same,insulin resistance,[1]; [6],"reverses, more effectively"
same,oral glucose tolerance,[1]; [6],"reverses, more effectively"
same,effects on mice on a high-fat diet relative to animals switched to a chow-fat diet,[2]; Cele-pro (CP30) versus CFD switch,comparable
same,VAT inflammation,[2]; [7],reverses
same,insulin resistance,[2]; [7],reverses
same,lymphatic dysfunction,[2]; [7],reverses
same,"plasma concentrations of celecoxib, compared to an equal mass of the parent drug",[3],lower
same,beneficial effects after reintroducing the mice to a high-fat diet (HFD rechallenge),[4],persist
